Settings: Gas, Vibrating wire viscometry

[He] [helium]
Settings | viscosity [mPa·s]
296.26 K, 100.3 kPa | 0.01964
296.26 K, 332.1 kPa | 0.01983
296.26 K, 500.3 kPa | 0.01979
296.26 K, 716 kPa | 0.01982
322.56 K, 110.1 kPa | 0.02084
322.56 K, 306.5 kPa | 0.02096
322.56 K, 521.2 kPa | 0.02101
322.56 K, 723 kPa | 0.021
373.12 K, 111.6 kPa | 0.02307
373.12 K, 307.1 kPa | 0.02314
373.12 K, 504.2 kPa | 0.02318
373.12 K, 698.5 kPa | 0.02322
472.08 K, 111.5 kPa | 0.02712
472.08 K, 313.7 kPa | 0.02727
472.08 K, 504.9 kPa | 0.02725
472.08 K, 717.7 kPa | 0.02732
572.96 K, 111.1 kPa | 0.03107
572.96 K, 309.7 kPa | 0.03119
572.96 K, 514.3 kPa | 0.03119
572.96 K, 721.7 kPa | 0.03123

[HH] [hydrogen]
Settings | viscosity [mPa·s]
296.26 K, 102.8 kPa | 0.0089
296.26 K, 305.3 kPa | 0.00897
296.26 K, 501 kPa | 0.009
296.26 K, 700.6 kPa | 0.00902
322.56 K, 111 kPa | 0.00941
322.56 K, 302.4 kPa | 0.00946
322.56 K, 502 kPa | 0.00949
322.56 K, 698 kPa | 0.00951
373.12 K, 111.6 kPa | 0.01041
373.12 K, 301.2 kPa | 0.01047
373.12 K, 503.1 kPa | 0.01048
373.12 K, 701.4 kPa | 0.0105
472.13 K, 111.4 kPa | 0.01209
472.13 K, 298.9 kPa | 0.01214
472.13 K, 500.1 kPa | 0.01215
472.13 K, 701.1 kPa | 0.01216
573.48 K, 98.9 kPa | 0.01416
573.48 K, 298.2 kPa | 0.0142
573.48 K, 503 kPa | 0.01427
573.48 K, 701.6 kPa | 0.01425

N#N [nitrogen]
Settings | viscosity [mPa·s]
296.26 K, 99.9 kPa | 0.01766
296.26 K, 312.6 kPa | 0.01773
297.05 K, 500.9 kPa | 0.01783
297.05 K, 700.9 kPa | 0.01789
322.56 K, 109.8 kPa | 0.01884
322.56 K, 307.3 kPa | 0.01892
322.56 K, 500.7 kPa | 0.01899
322.56 K, 701.2 kPa | 0.01904
373.12 K, 111.2 kPa | 0.02104
373.12 K, 300.6 kPa | 0.02109
373.12 K, 503.2 kPa | 0.02119
373.12 K, 694.5 kPa | 0.02121
472.1 K, 110.2 kPa | 0.02498
472.1 K, 309.7 kPa | 0.025
472.1 K, 505.8 kPa | 0.02509
472.1 K, 703.4 kPa | 0.02513
572.98 K, 111.7 kPa | 0.02864
572.98 K, 316.1 kPa | 0.02867
572.98 K, 502 kPa | 0.02871
572.98 K, 703.4 kPa | 0.02868

Source: the NIST ThermoML archive (doi:10.1016/j.jct.2015.04.028)
